Read-outs that look alike come from different tables or passages of the source.
What was measured:
[1] = molecular target: central benzodiazepine receptors (BDZ-Rs); experiment: 3H-FNZ binding to rat brain synaptosomal membranes (Section 3)
Protocol: In brief, for each assay, triplicate samples of the membranes, containing 0.2 to 0.4 mg protein were suspended in a final volume of 1 mL of 0.25 mM Tris--HCl buffer, pH 7.3. The incubation was carried out at 4° C. for 60 min with 0.6 nM ^3 H--FNZ. to study the binding saturation, a range of 0.3 to 10 nM ^3 H--FNZ was used. […] The assays were terminated by filtration under vacuum through Whatman GF/A glass-fiber filters, and three washes with 3 mL each of incubation medium. Filters were dried and counted after the addition of 5 mL of 2,5-diphenyloxazole/xylene as scintillation fluid.
The binding of ^3 H--FNZ was carried out as for (i) above.

serotonin 1A receptors = experiment: 3H-8-OH-DPAT binding, compound (IV); details: 10 μM
mice [2] = experiment: Elevated plus-maze, compound (IV); type: in vivo, male Swiss mice; details: i.p., 0.1 mg/kg, preliminary
Protocol: The animals used in the pharmacological test were male Swiss mice from our breeding stock, weighting 28-35 g. They were placed in groups of ten with free access to water and food, and maintained on 12 h/12 h day/night cycle. The elevated plus-maze set-up consisted of a maze of two open arms, 25×5 cm, crossed by two closed arms of the same dimensions, with free access to all arms from the crossing point. The closed arms had walls 35 cm high all around. The maze was suspended 50 cm from the room floor. Mice were placed on the central part of the cross facing an open arm. The number of entries and the time spend going into open and closed arms were counted during 5 min. A selective increase in the parameters corresponding to open arms revels an anxiolytic effect. The total exploratory activity (number of entries in both arms) was also determined according to the method of Pellow, S. J. et al. Neurosci. Meth. 1986, 14, 149; Lister, R. G. Psychopharmacology 1987, 92, 180).

AMPA-glutamate receptors = experiment: 3H-AMPA binding, compound (IV); details: 10 μM
[3] = system: cholinergic-muscarinic receptors; type: binding; details: 10 μM
GABAA receptors = experiment: 3H-muscimol binding, compound (IV); details: 10 μM
[4] = molecular target: benzodiazepine (BDZ-R) receptor; experiment: 3H-Flunitrazepam binding to extensively washed bovine cerebral cortical membranes; details: read-out: Ki, inhibition of 3H-FNZ binding; bovine cerebral cortical membranes; 0.6 nM 3H-FNZ, 4° C., 60 min; n=3
Protocol: Non-specific nitration of the flavone nucleus yielded the two nitrated flavone (II) and (IIa). […] Briefly, ^3 H-FNZ binding was carried out as described by Levy de Stein, M., Medina, J. H., De Robertis E., Mol. Brain Res. 1985, 5, 9-15. In brief, for each assay, triplicate samples of the membranes, containing 0.2 to 0.4 mg protein were suspended in a final volume of 1 mL of 0.25 mM Tris-HCl buffer, pH 7.3. The incubation was carried out at 4° C. for 60 minutes with 0.6 nM ^3 -FNZ. To study the binding saturation, a range of 0.3 to 10 nM ^3 H-FNZ was used. Non-specific binding was determined in parallel incubations in the presence of 3 μM FNZ, and represented 5-15% of total. The assays were terminated by filtration under vacuum though Whatman GF/A glass-fiber filters, and three washes with 3 mL each of incubation medium. Filters were dried and counted after the addition of 5 mL of 2,5-diphenyloxazole/xylene as scintillation fluid. Bovine cerebral cortical membranes were treated substantially following the method of Medina, J. H., De Robertis, E. J., J. Neurochem. 1985, 44, 1340-1345.

mice [5] = experiment: Horizontal wire test in mice; type: in vivo, male Swiss mice; details: mice, i.p.
Protocol: (§1) Adult male Wistar rats weighing 250 g were used for biochemical experiments. Adult male Swiss male weighing 25-30 g were used for pharmacological assays except for inhibitory avoidance and tail flick tests were done in rats. Animals were housed in a controlled environment, with free access to food and water and maintained on a 12 h/12 h day/night cycle.
This test was carried out as previously described (Viola et al., 1994; Wolfman et al., 1994; Viola et al., 1995). The test took place after two trials, performed at 5 min intervals. A myorelaxant drug will impair mice to grasp the wire (Bonetti et al., 1982). The effect of DNF )1 mg/kg) on DZ-induced myorelaxation was also determined.

mice [6] = experiment: Elevated plus maze test in mice (Section 2); type: in vivo, male Swiss mice; details: mice
Protocol: as §1
An Opto-varimex® apparatus was used according to Viola et al. (1994). The apparatus discriminates between total and ambulatory activities. An increase in the number of transitions through the beams reflects augmented locomotor activity. In this and all following tests in mice, animals were i.p. injected with the vehicle, or with DNF 20 min before the beginning of the tests. In each session, control mice were tested in parallel with those animals receiving drug treatment.
The test was performed in the same session immediately after the locomotor activity measurement (Viola et al., 1994; Wolfman et al., 1994). […] A series of experiments with the injection of the selective central benzodiazepine receptor antagonist Ro 15-1788 (File and Pellow, 1986) was also carried out.

mice [7] = experiment: Pentylenetetrazole (PTZ)-induced seizures; type: in vivo
Protocol: The effects of DNF on pentylenetetrazole (PTZ)--induced convulsions were evaluated according to Medina et al., (1990) with slight modifications. PTZ (200 mg/kg) was administered i.p. to mice 15 min after injection of drug or vehicle. The number of mice presenting clonic convulsions was determined.
Data are expressed as the percentage of mice presenting clonic or tonic-clonic seizures. ^3 number of animals per group.

[8] = molecular target: central benzodiazepine receptor; experiment: [3H]-FNZ binding to crude synaptosomal membranes from rat CNS regions; parameters: species or system rat (Wistar)
Protocol: as §1
Displacement curves were performed using [^3 ]-FNZ or [^3 H]-zolpidem ([^3 H]-ZOLP) as radioligands in washed crude synaptosomal membranes from rat cerebral cortex, cerebellum, hippocampus, striatum or spinal cord. Membrane preparations were carried out according to Medina et al. (1990). Briefly, brains were rapidly dissected out on ice and the different structures were homogenized in 10 volumes of 0.32 M sucrose and centrifuged at 900×g for 10 min. The resulting supernatant was centrifuged at 100,000×g for 30 min and the pellet washed twice in 25 mM Tris HCl buffer pH 7.4 at 100,000×g for 30 min, and stored at -20° C. until used.
For [^3 H]-FNZ (84 Ci/mmol, NEN) displacement curves, different concentrations of DNF (0.3 nM to 1 μM) were added to 0.3 mg membrane protein suspended in 1 ml of 25 mM Tris HCl buffer in presence of 0.6 nM of the radioligand. Protein determination was carried out by using the method of Lowry et al. (1951). Nonspecific binding (<5%) was determined in parallel incubations with 10 μM FNZ (Hoffmann-La Roche). The incubation was carried out at 4° C. for 2 h. The assays were determined by filtration under vacuum through Whatman GF/A glass fiber filters, and two washes with 3 ml each of incubation medium. Filters were dried and counted after the addition of 5 ml 2,5-diphenyl-oxazole (PPO)-xylene as scintillation fluid.

mice [9] = experiment: Elevated plus-maze test in mice (Section 1, incl. Table 1); type: in vivo, male Swiss mice; details: Mus musculus, ip, read-out: minimum dose necessary to produce similar anxiolytic effects
Protocol: Performance of mice on the elevated plus-maze test was used to measure anxiolytic actions in rodents, following i.p. administration of vehicle or compound (II).
The animals used in the pharmacological test were male Swiss mice from breeding stock, weighing 28-35 g. They were placed n groups of ten with free access to water and food, and maintained on 12 h/12 h day/night cycle. In all the tests the mice were i.p. injected with VEH or a solution of the drug, 15 minutes before the assay.
The elevated plus-maze set-up consisted of a maze of two open arms, 25×5 cm, crossed by two closed arms of the same dimensions, with free access to all arms from the crossing point. The closed arms had walls 35 cm high all around. The maze was suspended 50 cm from the room floor. Mice were placed on the central part of the cross facing an open arm. The number of entries and the time spent going into open and closed arms were counted during 5 minutes. […] The total exploratory activity (number of entries in both arms) was also determined.

mice [10] = experiment: Holeboard test in mice; type: in vivo, male Swiss mice; details: mice, 1 mg/kg; vehicle=8.5±1.2, p<0.001
Protocol: as §1
The test was performed according to Viola et al. (1994) and Wolfman et al. (1994). The number of head dips and the time spent head dipping were counted during 5 min.

[11] = rat cerebral cortex, read-out: Ki, 3H-FNZ binding

O=c1cc(-c2ccccc2[N+](=O)[O-])oc2ccc(Br)cc12 [Compound (III), 6-bromo-2'-nitroflavone]
Ki [1, 11]: 208 nM

O=c1cc(-c2cccc([N+](=O)[O-])c2)oc2ccc(Br)cc12 [Compound (IV), 6-bromo-3'-nitroflavone]
displacement of 3H-8-OH-DPAT binding (serotonin 1A receptors): does not displace
percentage of entries in the open arms (mice [2]): increasing both the percentage of entries in the open arms
time spent in the open arms (mice [2]): increasing both the percentage of entries in the open arms and the time spent in these arms
Ki ([1]; cerebellum, n=4, read-out: Ki SEM, 3H-FNZ binding): 3.6 ± 0.1 nM
Ki ([1]; cerebral cortex, first (high affinity) population of sites, n=6, read-out: Ki SEM, 3H-FNZ binding): 1.2 nM
Ki ([1]; cerebral cortex, second population of sites, n=6, read-out: Ki SEM, 3H-FNZ binding): 15.5 nM
Scatchard analysis of 3H-FNZ saturation curves ([1]; cerebral cortical membranes, data not shown): competitive ligand for the BDZ-R
Ki ([1]; hippocampus, n=2, read-out: Ki SEM, 3H-FNZ binding): 9.6 ± 0.6 nM
Ki [1, 11]: 220 ± 1 nM
affinity in spinal cord vs highest value in cerebral cortex ([1]; ratio): 10 times lower
potency for displacement of 3H-FNZ, type II BDZ-R regions vs cerebellum ([1]; ratio): 3-4 times lower
Ki ([1]; spinal cord, n=3, read-out: Ki SEM, 3H-FNZ binding): 12.7 ± 0.5 nM
Ki ([1]; striatum, n=3, read-out: Ki SEM, 3H-FNZ binding): 9.8 ± 1.6 nM
displacement of 3H-AMPA binding (AMPA-glutamate receptors): does not displace
displacement of 3H-QNB binding [3]: does not displace
displacement of [3H]-muscimol binding (GABAA receptors): does not displace

O=c1cc(-c2ccc([N+](=O)[O-])cc2)oc2ccc([N+](=O)[O-])cc12 [(IIa), 6,4'-Dinitroflavone]
Ki [4]: 17000 ± 5000 nM

CN1C(=O)CN=C(c2ccccc2)c2cc(Cl)ccc21 [Diazepam, reference compound]
myorelaxant effect (mice [5]; 1 mg/kg): marked myorelaxant effect
animals showing myorelaxant effect (mice [5]; DZ 1 mg/kg): 8 animals out of 10
dose needed to increase open arm entries relative to DNF (mice [6]): 10-100 times higher
percentage of open arm entries (mice [6]; 0.3 mg/kg, vehicle=22.9±2.0%, p<0.05): 35.0±4.5%
% of convulsing mice (mice [7]; DZ 0.3 mg/kg, n=6, p<0.001 (VEH + PTZ 96)): 33.3%
% of convulsing mice (mice [7]; DZ 1.0 mg/kg, n=12, p<0.001): 42%
% of convulsing mice (mice [7]; DZ 3.0 mg/kg, n=9, p<0.001): 0%
anticonvulsant activity vs PTZ (mice [7]; mice, 0.3-3 mg/kg, p<0.001, PTZ 200 mg/kg): showed anticonvulsant activity
Ki ([8]; all the brain regions studied, read-out: Ki, [3H]-FNZ binding): ~7 nM
minimal effective dose (mice [9]): 0.03 mg/kg
head dips (mice [10]): 1.2±0.5

Cc1nnc2ccc(-c3cccc(C(F)(F)F)c3)nn12 [CL 218,872, reference compound]
Ki ([8]; cortical membranes, high affinity site, read-out: high affinity Ki value): 10 nM
Ki ([8]; cortical membranes, low affinity site, read-out: low affinity Ki value): 1200 nM

O=c1cc(-c2cccc([N+](=O)[O-])c2)oc2ccccc12 [(VI), 3'-nitroflavone]
Ki [1, 11]: 250 nM

O=c1cc(-c2cccc([N+](=O)[O-])c2)oc2ccc(Cl)cc12 [(VIII), 6-Chloro-3'-nitroflavone]
Ki [1, 11]: 8 nM

O=c1cc(-c2ccc([N+](=O)[O-])cc2)oc2ccc(Br)cc12 [Compound (V), 6-bromo-4'-nitroflavone]
Ki [1, 11]: 220 nM

O=c1cc(-c2cccc([N+](=O)[O-])c2)oc2ccc(F)cc12 [(IX), 6-Fluoro-3'-nitroflavone]
Ki [1, 11]: 170 nM
